Experimental data reported in patent US4352819A (priority 1980, dated 1982).
Read-outs that look alike come from different tables or passages of the source.

Tests used:
[1] = test system: calcium chloride-induced arrhythmias; assay: Calcium chloride test (antiarrhythmic); assay type: in vivo, rat; conditions: for ED50: iv, read-out: ED50, Calcium chloride, rat
Source text: (§1) These compounds were first selected owing to their activity in different experimental arrhythmia models which are used as screening techniques. So the chloroform, aconitine and calcium chloride tests have been used for testing the compounds of the invention as described by J. W. Lawson, J.Pharmacol.exp.Ther. 160, 22-81 (1968) "Antiarrhythmic activity of some isoquinoline derivatives determined by a rapid screening procedure in the mouse".
Cardiac arrhythmia frequently occurs when the levels of serum ions are abnormal, particularly when the calcium level is four times higher than the normal concentration. This is the reason why intravenous administraction of high doses of calcium chloride can elicit the development of dysrhythmias in animals.
In the anaesthetized rat the rapid intravenous injection of calcium chloride causes lethal ventricular fibrillation or ventricular extrasystoles. The evaluation of the activity of the test compound aministered prior to the calcium chloride injection is based on the onset of arrhythmia (M. R. Malinow et al., Arch.int. Pharmacodyn. 102, 55-64 (1955), "The pharmacology of experimental ventricular arrhythmias in the rat I. Antihistamic drugs") or return to sinus rhythm after occasional trouble of rhythm (M. Fekete et al., Med. Exp. 10, 93-102 (1964), "On the antiarrhythmic effect of some thymoleptics: amitriptyline, imipramine, trimepropimine and desmethylimipramine").

[2] = test system: aconitine-induced arrhythmias; assay: Aconitine test (antiarrhythmic); assay type: in vivo, rat; conditions: for ED50: Rattus norvegicus, read-out: ED50, Aconitine, rat
Source text: as §1
It seems that investigators favour the rat so as to study the protective effect of a compound on arrhythmia induced by aconitine (see: J. L. Junien et al., Arzneim.Forsch. 24, 1743-1747 (1974); L. Szekeres et al., Experimental cardiac arrhythmias and antiarrhythmic drugs, Publishing House of the Hungarian Academy of Sciences (Akademia Kiado), Budapest (1971); M. R. Malinow et al., Arch.int.Pharmacodyn. 102, 55-64 (1955); C. Bianchi et al., Arzneim. Forsch. 18, 845-850 (1968); B. B. Vargaftig et al., J. Pharm. Pharmacol. 27, 697-699 (1975); and M. Fekete et al., Med Exp. 10, 93-102 (1964)).
Test compounds are administered to the urethane-anaesthetized rat prior to the injection of aconitine. Various antiarrhythmic drugs are capable of delaying the onset of aconitine-induced arrhythmias and this model of arrhythmia seems to be suitable for assaying the antiarrhythmic acitivity.

[3] = test system: ventricular fibrillation induced by chloroform; assay: Chloroform test (antiarrhythmic); assay type: in vivo; conditions: iv, read-out: ED50, Chloroform, mouse (dose which protects 50% of the mice against ventricular fibrillation induced by chloroform)
Experimental: Five minutes after i.v. injection of the compound under study the mice are placed into a 300 ml beaker containing cotton wool soaked with 20 ml of chloroform. The animals are watched carefully and taken out of the beaker as soon as the second respiratory arrest occured. The heart is then quickly exposed to visual inspection of ventricular rhythm (see Lawson, Loc.cit.).

`CCCCNCC(O)COc1ccsc1C(=O)CCc1ccccc1.OCl` (centres unmarked) [LG 80-6-00, 1-[3-(2-hydroxy-3-n-butylaminopropoxy)-2-thienyl]-3-phenyl-1-propanone-chlorohydrate] was tested, and the ED50 ([1]; Rattus norvegicus) was 5.04 mg/kg, the ED50 [2] was 4.23 mg/kg and the ED50 ([3]; Mus musculus) was 4.16 mg/kg.
`CCCNCC(O)COc1c(C)csc1C(=O)CCc1ccccc1.OCl` (centres unmarked) [LG 80-6-01, 1-[4-methyl-3-(2-hydroxy-3-n-propylaminopropoxy)-2-thienyl]-3-phenyl-1-propanone-chlorohydrate] was tested, and the ED50 ([1]; Rattus norvegicus) was 2.59 mg/kg, the “protection against arrhythmias induced by calcium chloride” value ([1]; rat) was “best protection against arrhythmias induced by calcium chloride” and the ED50 [2] was 1.49 mg/kg. The “ranking in the aconitine test” value ([2]; rat, compared by ED50) was “best compound in this method” and the ED50 ([3]; Mus musculus) was 3.57 mg/kg.
`CCCNCC(O)COc1cc(C)sc1C(=O)CCc1ccccc1.OCl` (centres unmarked) [LG 80-6-02, 1-[5-methyl-3-(2-hydroxy-3-n-propylaminopropoxy)-2-thienyl]-3-phenyl-1-propanone-chlorohydrate] showed an ED50 ([1]; Rattus norvegicus) of 2.87 mg/kg, an ED50 [2] of 22.8 mg/kg and an ED50 ([3]; Mus musculus) of 17.6 mg/kg.
`CCCNCC(O)COc1ccccc1C(=O)CCc1ccccc1` (centres unmarked) [Propafenon, Propafenone, reference compound] showed an ED50 ([1]; anaesthetized rat, compound given prior to i.v. calcium chloride) of 4.49 mg/kg, an ED50 [2] of 2.1 mg/kg and an ED50 ([3]; mouse, i.v., 5 minutes before chloroform) of 3.45 mg/kg.
